Common to all, as to format: in vivo, rat
One experiment has as its system insulin. In words: Suppression of insulin in arginine-stimulated rats. Conditions: for reduction in insulin in vivo (in words): tested in vivo by standard methods. How it is done:
(§1) Albino male rats are administered Nembutol intraperitoneally at a dose of 50 mg/kg. Fifteen minutes later a subcutaneous injection of the test compound or physiological saline is administered. Ten minutes later 0.5 ml. of arginine (300 mg/ml, pH 7.2) is injected into the heart. Five minutes after receipt of the arginine the rats are decapitated and blood is collected into Trasylol-EDTA. An appropriate aliquot is assayed for insulin and glucagon.

Experiment [1] has as its system gastric acid secretion (total acid output). In words: Anti-secretory activity in pylorus-ligated rats (total acid output over four hours). The settings on record: for Percentage Inhibition (of Total Acid Output): i.d. administration, pylorus-ligated rats, 4 hr, versus control group. The procedure: The polypeptide of this invention was tested and found active parenterally (s.c.) in the following scientifically recognized, standard test for anti-secretory activity;
Male Charles River rats of Sprague-Dawley strain and 190 to 240 gm. body weight are food deprived for 24 hr. with water ad libitum until the test. Groups of ten rats each are assigned to either control or drug treatment. Pyloric ligation was performed under ether anesthesia through a midline laparotomy, and either control vehicle (0.25 methylcellulose) or drug in control vehicle was administered intraduodenally. The rats are sacrificed by CO2 asphyxiation four hours after pyloric ligation. The stomachs are removed and the gastric contents emptied into graduated centrifuge tubes. The gastric samples are centrifuged for 20 min. and those obviously contaminated by food, blood or feces are discarded. The volume of gastric fluid is recorded and the acid concentration of 1.0 ml. sample aliquots is measured by electrometric titration to pH 7.0 with 0.1 N NaOH. The calculated product of gastric volume (ml/4 hr.) and acid concentration (mEq/L) estimates the total acid output (TAO, mEq/4 hr.) over the four-hour test period.
An index of drug gastric antisecretory activity is reported at the end of the example illustrating its production. The results, expressed as percentage inhibition, show the reduction of acid secretion in drug-treated compared to control groups, based upon i.d. administration of 2 mg/kg and 0.5 mg/kg of the tested compound. In addition, the effect of the polypeptide in the control of insulin and glucagon secretion is reported at a dose of 750 micrograms per kilogram.

The next experiment concerns glucagon. In words: Suppression of glucagon in arginine-stimulated rats. The settings on record: for reduction in glucagon in vivo (in words): tested in vivo by standard methods. The procedure:
as §1

Setting [2] is: listed as compound of this invention.
Where [3] appears, read: listed as polypeptide of the invention.

Counter-ions that a name gives are not always drawn. Bridge positions count the residues as written; N and C are the ends. Square brackets hold non-standard residues; d marks the D form. Peptide text beside a SMILES is read from it.

Compound `C[C@H](N)C(=O)NCC(=O)N[C@H]1CSSC[C@@H](C(=O)O)NC(=O)[C@H](CO)NC(=O)[C@H]([C@@H](C)O)NC(=O)[C@H](Cc2ccc(O)cc2)NC(=O)[C@H]([C@@H](C)O)NC(=O)[C@H](CCCCN)NC(=O)[C@@H](Cc2c[nH]c3ccccc23)NC(=O)[C@H](Cc2ccccc2)NC(=O)[C@H](Cc2ccccc2)NC(=O)[C@H](CC(N)=O)NC(=O)[C@H](CCCCN)NC1=O` [Example 5, L-alanylglycyl-L-cysteinyl-L-lysyl-L-asparaginyl-L-phenylalanyl-L-phenylalanyl-D-tryptophyl-L-lysyl-L-threonyl-L-tyrosyl-L-threonyl-L-seryl-L-cysteine cyclic (3-14)-disulfide, triacetate-salt] (H-AGCKNFF[dW]KTYTSC-OH; disulfide 3-14) showed an Insulin in the experiment on insulin (750 μg/kg subcutaneous, arginine-stimulated rats, blood 15 min after dosing, control 283 ± 28) of 238 ± 42 μU/ml. Further, the figures for the “reduction in insulin in vivo (in words)” value in the experiment with insulin (setting [2]) and with insulin (setting [3]) were “no meaningful reduction” and “without materially affecting”, respectively. Moreover, the entries for the “Percentage Inhibition (of Total Acid Output)” value in experiment [1] (0.5 mg/kg) and in experiment [1] (2 mg/kg) were 38% and 68%, respectively. Moreover, the “anti-secretory activity (in words)” value in experiment [1] (parenterally (s.c.)) is on record as “active”. The Glucagon in the experiment with glucagon (750 μg/kg subcutaneous, arginine-stimulated rats, blood 15 min after dosing, control 55 ± 5) turned out to be 35 ± 9 pg/mL. The “reduction in glucagon in vivo (in words)” value was “no meaningful reduction” in the experiment on glucagon (setting [2]) and “without materially affecting” in the experiment on glucagon (setting [3]).

`C[C@H](N)C(=O)NCC(=O)N[C@H]1CSSC[C@@H](C(=O)O)NC(=O)[C@H](CO)NC(=O)[C@H]([C@@H](C)O)NC(=O)[C@H](Cc2ccccc2)NC(=O)[C@H]([C@@H](C)O)NC(=O)[C@H](CCCCN)NC(=O)[C@H](Cc2c[nH]c3ccccc23)NC(=O)[C@H](Cc2ccccc2)NC(=O)[C@H](Cc2ccccc2)NC(=O)[C@H](CC(N)=O)NC(=O)[C@H](CCCCN)NC1=O` [Somatostatin, reference compound]: in the experiment on insulin (same test procedure), the “dose that effectively inhibits secretion of insulin” value is “about 10 micrograms per kilogram”. In addition, the “dose that effectively inhibits secretion of glucagon” value with glucagon (same test procedure) is on record as “about 10 micrograms per kilogram”.

For the origin of these results see patent publication US4209441A, “Anti-gastric secretion polypeptide” (American Home Products Corporation, priority 1979, dated 1980).
